The numbers were not newly measured in US20210290639A1, “IMMEDIATE RELEASE FORMULATION OF A TRIPLE COMBINATION OF ACTIVE PHARMACEUTICAL INGREDIENTS USEFUL IN THE TREATMENT OF POLYCYSTIC OVARY SYNDROME” (priority 2018, published 2021), which cites them from elsewhere.

The conditions of the series: low solubility and high permeability.

For `CC(=O)S[C@@H]1CC2=CC(=O)CC[C@]2(C)[C@H]2CC[C@@]3(C)[C@@H](CC[C@@]34CCC(=O)O4)[C@H]12` [spironolactone, 7α-Acetylthio-3-oxo-17α-pregn-4-ene-21,17β-carbolactone], the BCS class result is recorded as “Class II”.
As for `CCc1ccc(CCOc2ccc(CC3SC(=O)NC3=O)cc2)nc1` (racemic) [pioglitazone, ((±)-5-[p-[2-(5-Ethyl-2-pyridyl)ethoxy]benzyl]-2,4-thiazolidinedione], the BCS class entry is “Class II”.
